Results from ChEMBL document CHEMBL1135056, “Differential inhibition of polymerase and strand-transfer activities of HIV-1 reverse transcriptase” (Bioorg Med Chem Lett, 2002).
pIC50: −log10 of the molar value.

Legend:
[1] = biological target: T1, Human immunodeficiency virus type 1 reverse transcriptase (Human immunodeficiency virus 1, UniProt Q72547); assay: Inhibition of HIV-1 reverse transcriptase polymerization using wild type HIV-1-RT enzyme
[2] = biological target: T1, Human immunodeficiency virus type 1 reverse transcriptase; assay: Tested for its ability to inhibit HIV-1 reverse transcriptase strand transfer using wild type HIV-1-RT enzyme
[3] = biological target: T1, Human immunodeficiency virus type 1 reverse transcriptase; assay: Tested for its ability to inhibit HIV-1 reverse transcriptase strand transfer using A17 double mutant HIV-1-RT enzyme
[4] = biological target: T1, Human immunodeficiency virus type 1 reverse transcriptase; assay: Tested for its ability to inhibit HIV-1 reverse transcriptase polymerization using A17 double mutant HIV-1-RT enzyme

How did the pIC50 [1] turn out when `O=C(OC1COc2cc(O)cc(O)c2C1)c1ccc(O)c(O)c1` (centres undefined) was run?
The pIC50 was 4.43.

What about the pIC50 [2] of the same compound?
The pIC50 was under 4.00.

And the pIC50 [3]?
Its pIC50 is under 4.00.

What about the pIC50 [4] of the same compound?
Its pIC50 is under 4.00.

`O=C(OCCc1ccc(O)cc1)c1cc(O)c(O)c(O)c1` was tested. Which pIC50 [1] did it give?
Its pIC50 is 5.10.

What about the pIC50 [2] of the same compound?
The pIC50 was 5.35.

What does the source list for `O=C(OC1COc2cccc(O)c2C1)c1cc(O)c(O)c(O)c1` (centres undefined)?
pIC50 [1]: 4.34; pIC50 [2]: 5.06; pIC50 [4]: 4.19

With `O=C(OC1COc2cc(O)cc(O)c2C1)c1cc(O)cc(O)c1` (centres undefined) as the compound, how does the pIC50 [1] read?
The pIC50 was 4.02.

Which results are given for `O=C(OC1COc2ccccc2C1)c1cc(O)c(O)c(O)c1` (centres undefined)?
pIC50 [1]: < 4.00; pIC50 [2]: 5.21; pIC50 [3]: 5.59; pIC50 [4]: < 4.00

What does the source list for `O=C(OC1COc2cc(O)cc(O)c2C1)c1ccccc1` (centres undefined)?
pIC50 [1]: < 4.00; pIC50 [2]: < 4.00; pIC50 [3]: < 4.00; pIC50 [4]: < 4.00

With `O=C(OCCc1ccc(O)c(O)c1)c1cc(O)c(O)c(O)c1` as the compound, how does the pIC50 [1] read?
The pIC50 was 4.97.

What about the pIC50 [2] of the same compound?
The pIC50 was 6.22.

What about the pIC50 [3] of the same compound?
The pIC50 was 4.98.

What about the pIC50 [4] of the same compound?
Its pIC50 is 5.20.

With `COc1cc(OC)c2c(c1)OCC(OC(=O)c1cc(O)c(O)c(O)c1)C2` (centres undefined) as the compound, how does the pIC50 [1] read?
Its pIC50 is 4.14.

And the pIC50 [2]?
Its pIC50 is 6.05.

And the pIC50 [3]?
Its pIC50 is 5.16.

And the pIC50 [4]?
Its pIC50 is under 4.00.

Which results are given for `O=C(OC1COc2cc(O)ccc2C1)c1cc(O)c(O)c(O)c1` (centres undefined)?
pIC50 [1]: 4.44; pIC50 [2]: 5.12; pIC50 [4]: 4.51

How did the pIC50 [1] turn out when `O=C(OCCc1ccccc1)c1cc(O)c(O)c(O)c1` was run?
The pIC50 was 4.14.

And the pIC50 [2]?
The pIC50 was 5.16.

Which results are given for `O=C(OC1COc2cc(O)cc(O)c2C1)c1cc(O)c(O)c(O)c1` (centres undefined)?
pIC50 [1]: 5.42; pIC50 [2]: 5.21; pIC50 [3]: 5.26
